Data taken from patent US5279543A, “Device for iontophoretic non-invasive sampling or delivery of substances” (priority 1992, dated 1994).
“And” between values parts separate entries of the source, which are not always exact repeats. Equal values may be shown once. “Also recorded” adds a separate entry of the source. Where a name gives a salt, the structure may show the parent alone. Values belong to the molecule of their own block, whether it stands above or below them.

Columns and labels:
[1] = In vitro iontophoretic delivery of P.S.O.S. from chamber 16A; type: in vitro ADME
Experimental: (b) P.S.O.S. (Potassium Sucrose Octa Sulfate) P.S.O.S., 0.6 ml of 1.5 mg/ml solution in a boric buffer is placed in chamber 16A and boric acid buffer alone is placed in chamber 16C of FIG. 1, 2 or 3. Using a direct current of 0.5 mA (0.65 mA/cm^2) transport of P.S.O.S. is observed up to 5 μg/hr.

[2] = charged and uncharged TRH; excised nude mouse skin; cited from earlier work
[3] = Iontophoretic sampling in vitro (Example 2); type: in vitro ADME, hairless mouse; conditions: 0.5 mA, about 2 hr, about 0.63 mA/cm^2; various concentrations; mean of at least two experiments
Experimental: Iontophoretic sampling consists of pulling out chemical substances from the body through the skin by means of electricity. In order to test this method, an iontophoretic in-vitro cell is used (FIGS. 1, 2, 3 or 4). Full-thickness hairless mouse skin 13 (8-13 weeks old) is placed between the two parts of the cell. Solutions of radiolabelled drugs of known concentration in phosphate-buffered saline are circulated 10 ml/hr. beneath the skin. On top of the skin there are two self-adhesive gel electrodes, connected to a power supply which is set up in constant current mode (0.5 mA). Current is applied for measured length of time (about 2 hr.) corresponding to about 0.63 mA/cm^2. After the experiment the gel electrodes are taken for scintillation counting, which reflects the amount of drug absorbed by the gel electrodes. Using different drug concentrations with the same electrical current for the same period of time, a linear correlation between the amount is collected by the electrode and drug concentration is expected.

[4] = Experimental: (1) Leakage tests (without current) using dye and silicone rubber than skin; (2) leakage tests using dye and skin (without current); and (3) iontophoretic tests using the drug solutions and skin (with and without current). Procedures (1) and (2) were evaluated by visually inspecting the cell. […] The activity of the skin 13 and of the samples taken from the receptor chamber was determined post-experimentally. Each experiment lasts approximately 24 hours, ±2 hours, with samples collected hourly. Receptor fluid 17 was magnetically stirred (27), and the collection flow rate was 10 ml/hr.
[5] = In vivo sampling with iontophoresis cell on human forearm; conditions: forearm of person; versus in vitro case
Excerpt: The procedure and description above for in vitro sampling is used except that the membrane is replaced by the top of the forearm of a human being. The sampling cell used is the one in FIGS. 7, 8, 9A and 9B.

[6] = In vivo iontophoretic sampling (biosensing) in dog
Excerpt: The sampling of the radioactive clonidine in vitro is described above. […] The operator is alerted when to administer an injection clondine to maintain the desired level of clonidine in the test dog.

[7] = In vitro iontophoretic sampling of glucose through skin into gel electrodes; type: in vitro ADME, hairless mouse (Skh: hr-1); conditions: for Amount Glucose Measured In Gel Electrode per Sample: four time periods; for Iontophoretic Flux sample (amount of glucose sampled in 2 hours): 0.5 mA, (+) electrode; for Sample-glucose: four cells
Experimental: In order to show the ability of the method to sample glucose through the skin, in vitro studies are conducted using hairless mouse skin as the skin model and the iontophoretic diffusion cells in FIGS. 1-13. The results here are applicable to in-vivo sampling from a mammal, particularly a human being. Two self-adhesive gel electrodes (Kenzgelelc, by Nitto Electric Industry Co., Limited, Osaka, Japan) are placed on the same side of a singe continuous piece of hairless mouse skin (full thickness-about 0.5 mm) (Skh: hr-1, 8-13 weeks old). Under the skin, radiolabelled (^14 C-U)-glucose having known concentration in solution in phosphate-buffered saline (0.9% sodium chloride) is perfused, pH of phosphate is about 7.4. Temperature is ambient.
In the first set of experiments, following the assembly of the cell and initiation of the glucose solution perfusion, current is applied (0.5 milliampere) for 2 hours. The voltage may vary from about 1 to 10 volts. Usually, it is about 5 volts. The important parameter to keep constant is the applied current. The voltage may vary based upon the electrical resistance of the sampling site. Then the gel electrodes are disconnected and tested for radioactivity content by conventional liquid scintillation counting. […]. […] (Electrical conditions in the experiments--same constant direct current (dc) but as iontophoretic delivery may also operate in pulsed current, etc., (the pulsed approach should also perform in a predictable way for sampling).
the second set of experiments, using similar experimental set-up as before, a (^14 C-U)-glucose solution of 0.34 mg/ml glucose is phosphate buffered saline is perfused, and the gel electrodes are replaced every 30 minutes.
Since the skin for each single experiment comes from a different mouse, evaluation of each single diffusion cell (means--samples collected through the same piece of skin), eliminating the first sample (the first 0.5 hr. is slightly higher than the others due to the experimental conditions) was done. […]

- Transport of P.S.O.S. ([1]; direct current 0.5 mA (0.65 mA/cm^2), 0.6 ml of 1.5 mg/ml solution): up to 5 μg/hr
- Amount of P.S.O.S. transferred ([1]; printed 'with a current' (comparison, same configuration)): only a few nanograms
SMILES: O=S(=O)(O)OC[C@H]1O[C@@](COS(=O)(=O)O)(O[C@H]2O[C@H](COS(=O)(=O)O)[C@@H](OS(=O)(=O)O)[C@H](OS(=O)(=O)O)[C@H]2OS(=O)(=O)O)[C@@H](OS(=O)(=O)O)[C@@H]1OS(=O)(=O)O [P.S.O.S., Potassium Sucrose Octa Sulfate]

SMILES: NC(=O)[C@@H]1CCCN1C(=O)[C@H](Cc1cnc[nH]1)NC(=O)[C@@H]1CCC(=O)N1 [TRH, thyrotropin releasing hormone]
- Iontophoretic flux across excised tissue compared with passive diffusion [2]: greater than those obtained by passive diffusion alone

SMILES: Clc1cccc(Cl)c1N=C1NCCN1 [clonidine-HCl, Clonidine HCl]
- Linearity of amount sampled versus drug concentration (FIG. 11 and 12) [3]: linearity of the results
- Rate of penetration through the skin with current ([4]; 0.63 mA/cm^2): 15.0 μg/cm^2 /hr
- Mean rate of diffusion into the receptor phase (passive transport rate) ([4]; no current): 0.05 μg/cm^2 /hr
- Drug found in the buffered saline of chamber 16C ([4]; no current, after 20 hours): no drug was found
- Amount of labelled drug in the buffered saline of chamber 16C ([4]; with current 0.63 mA/cm^2, approximately 20 hours): 5 µg
- Amount of clonidine sampled in vivo [5]: comparable to that observed in the in vitro case
- Level of radioactive clonidine measured iontophoretically [6]: quickly and accurately

- S.D. for individual diffusion cells (individual mouse) ([7]; 0.34 mg/ml glucose, except cell #3): 4 to 9%
- Amount of glucose sampled, average of four separate cells ([7]; 0.34 mg/ml glucose, first 0.5 hr sample eliminated): 0.79 to 0.74 μg
- Ratio A/B of glucose sampled ([7]; 0.153 vs 1.07 mg/ml (concentration ratio 0.143)): 0.144
- Sample-glucose, Average ([7]; average of samples 1-5 (0 - 2 1/2 hr), 0.34 mg/ml glucose, 15 ml/hr): 0.80 ± 0.19 µg
- Amount Glucose Measured In Gel Electrode per Sample ([7]; cell 1, 0.34 mg/ml glucose, 15 ml/hr): 0.825 ± 0.041 µg
- Amount Glucose Measured In Gel Electrode per Sample ([7]; cell 2, 0.34 mg/ml glucose, 15 ml/hr): 0.963 ± 0.090 µg
- Amount Glucose Measured In Gel Electrode per Sample ([7]; cell 3, 0.34 mg/ml glucose, 15 ml/hr): 0.530 ± 0.115 µg
- Amount Glucose Measured In Gel Electrode per Sample ([7]; cell 5, 0.34 mg/ml glucose, 15 ml/hr): 0.727 ± 0.033 µg
- Iontophoretic Flux sample (amount of glucose sampled in 2 hours) ([7]; glucose concentration 1.07 mg/ml): 4.9 μg/2 hr and 4.9 +/- 0.7 μg/2 hr
- Sample-glucose ([7]; sample 1, 0 - 1/2 hr, 0.34 mg/ml glucose, 15 ml/hr): 0.97 ± 0.12 µg
- Sample-glucose ([7]; sample 2, 1/2 - 1 hr, 0.34 mg/ml glucose, 15 ml/hr): 0.79 ± 0.09 µg
- Sample-glucose ([7]; sample 3, 1 - 1 1/2 hr, 0.34 mg/ml glucose, 15 ml/hr): 0.76 ± 0.10 µg
- Sample-glucose ([7]; sample 4, 1 1/2 - 2 hr, 0.34 mg/ml glucose, 15 ml/hr): 0.75 ± 0.21 µg
- Sample-glucose ([7]; sample 5, 2 - 2 1/2 hr, 0.34 mg/ml glucose, 15 ml/hr): 0.74 ± 0.24 µg
SMILES: O=C[C@H](O)[C@@H](O)[C@H](O)[C@H](O)CO [glucose]
- Correlation between glucose concentration under/in the skin and amount of glucose sampled ([7]; fixed sampling time, same electrical conditions): near-perfect linear correlation; also recorded: clear correlation
- Iontophoretic Flux sample (amount of glucose sampled in 2 hours) ([7]; glucose concentration 0.153 mg/ml): 0.705 μg/2 hr and 0.705 +/- 0.095 μg/2 hr
